Assay results: patent EP3009422A1, “Photo-switchable sulfonylureas and their uses” (Ludwig-Maximilians-Universität München, priority 2014, dated 2016)
pIC50: −log10 of the molar value.

Tests used:
SUR1 = biological target: T1, SUR1 (Rattus norvegicus, UniProt Q09429); assay: [3H]-glibenclamide displacement radioassay in SUR1-expressing HEK293t cells; format: binding
T1 construct: expressed in transfected cells; host or cells: HEK293t
Protocol: SUR1-expressing HEK293t cells were harvested and washed twice in assaying buffer containing in mM: 119 NaCl, 4.7 KCl, […], 1.2 KH2PO4, 1.2 MgSO4, 5 NaHCO3, and 20 HEPES, pH 7.4. In a 96-well plate, ∼200,000 cells/well were incubated for 50 min with [3H]-glibenclamide (PerkinElmer) and different concentrations of glimepiride (Sigma-Aldrich) or JB253. Incubation was terminated by rapid filtration through Whatman GF/C filters by means of a Brandel MWXR-96 TI harvester and filters were washed 3 times with ice-cold assay buffer. Radioactivity was counted 6 h after cell and filter lysis in 200 µL Rotiszint EcoPlus (Roth) using a Packard microbeta scintillation counter (PerkinElmer).
(§1) Data distribution was determined using the D'Agostino omnibus test. Non-multifactorial pairwise comparisons were made using either the Student's t-test. Interactions between multiple treatments were assessed using one-way ANOVA followed by pairwise comparisons using Bonferroni's post-hoc test. Effect sizes in islets/cells are usually sufficiently large that multiple animals/independent replication is a more important determinant of power in studies requiring statistical comparison. Non-linear regression was used to calculate the EC50 of normalized and log-transformed concentration-response curves. For [3H]-glibenclamide displacement assays, data points were fitted to the Hill equation before calculation of the halfmax value. In all cases, analysis was performed using Graphpad Prism (Graphpad Software) and IgorPro, and experimental numbers reported as independent biological replicates. No animals or data were excluded from the analysis and results were considered significant at P<0.05.

mouse islets = assay: Calcium imaging (fMCI) of beta cell activity in intact mouse islets; format: cell-based; conditions: mouse islets
Protocol: Male and female CD1 and C57BL6 mice (8-20 weeks) were maintained in a specific pathogen-free facility under a 12h light-dark cycle with ad libitum access to water and food. Animals were euthanized using a schedule-1 method and pancreatic islets isolated by collagenase digestion. All procedures were regulated by the Home Office according to the Animals (Scientific Procedures) Act 1986 of the United Kingdom (PPL 70/7349), and study approval granted by the Animal Welfare and Ethical Review Body (AWERB) of Imperial College. No randomization was used for animal experimentation, since mice were only used as tissue donors.
Islets were loaded for 30-45 min in fluo2-AM (10 µM) or for 2-5 min with X-Rhod 1 (5 µM) diluted with a mixture of DMSO (0.01%, wt/vol) and pluronic acid (0.001%, wt/vol; all Invitrogen) in a bicarbonate buffer containing in mM: 120 NaCl, 4.8 KCl, 1.25 NaH2PO4, 24 NaHCO3, 2.5 CaCl2, 1.2 MgCl2 and 5 D-glucose. fMCI was performed using a Zeiss Axiovert M200 fitted with a Nipkow spinning-disk head (Yokogawa CSU-10) and a 10x/0.3NA objective adjusted for chromatic aberration (EC Plan-Neofluar, Zeiss). Pulsed excitation (frequency = 0.5 Hz; exposure = 263 ms) was delivered at 491 nm and emitted signals recorded at 500-550 nm with a back-illuminated 16-bit EM-CCD camera (ImageEM 9100-13; Hamamatsu). During recording, islets were maintained at 35-36 °C in the presence of 50 µM JB253 using a custom-manufactured perfusion and heating system (Digital Pixel). Drugs were introduced through the perfusion system at the indicated time points and concentrations. Violet light was delivered by a 405 ± 5 nm laser coupled to the side port of the microscope and configured to fill the back of the objective with light using an Optospot (Cairn Research). Blue light was delivered using 440 ± 5 nm and 491 ± 5 nm diode lasers controlled by a laser merge module (Spectral Applied Research) to allow simultaneous exposure and acquisition. For single islet targeting, a 473 ± 5 nm laser was coupled to a custom-manufactured dichroic array (Cairn Research), allowing user-directed steering of a collimated laser spot across the field of view. Signals were normalized using F/Fmin where F is fluorescence at a given timepoint and Fmin is minimum fluorescence.
as §1

T1 sequence (Q09429 whole entry): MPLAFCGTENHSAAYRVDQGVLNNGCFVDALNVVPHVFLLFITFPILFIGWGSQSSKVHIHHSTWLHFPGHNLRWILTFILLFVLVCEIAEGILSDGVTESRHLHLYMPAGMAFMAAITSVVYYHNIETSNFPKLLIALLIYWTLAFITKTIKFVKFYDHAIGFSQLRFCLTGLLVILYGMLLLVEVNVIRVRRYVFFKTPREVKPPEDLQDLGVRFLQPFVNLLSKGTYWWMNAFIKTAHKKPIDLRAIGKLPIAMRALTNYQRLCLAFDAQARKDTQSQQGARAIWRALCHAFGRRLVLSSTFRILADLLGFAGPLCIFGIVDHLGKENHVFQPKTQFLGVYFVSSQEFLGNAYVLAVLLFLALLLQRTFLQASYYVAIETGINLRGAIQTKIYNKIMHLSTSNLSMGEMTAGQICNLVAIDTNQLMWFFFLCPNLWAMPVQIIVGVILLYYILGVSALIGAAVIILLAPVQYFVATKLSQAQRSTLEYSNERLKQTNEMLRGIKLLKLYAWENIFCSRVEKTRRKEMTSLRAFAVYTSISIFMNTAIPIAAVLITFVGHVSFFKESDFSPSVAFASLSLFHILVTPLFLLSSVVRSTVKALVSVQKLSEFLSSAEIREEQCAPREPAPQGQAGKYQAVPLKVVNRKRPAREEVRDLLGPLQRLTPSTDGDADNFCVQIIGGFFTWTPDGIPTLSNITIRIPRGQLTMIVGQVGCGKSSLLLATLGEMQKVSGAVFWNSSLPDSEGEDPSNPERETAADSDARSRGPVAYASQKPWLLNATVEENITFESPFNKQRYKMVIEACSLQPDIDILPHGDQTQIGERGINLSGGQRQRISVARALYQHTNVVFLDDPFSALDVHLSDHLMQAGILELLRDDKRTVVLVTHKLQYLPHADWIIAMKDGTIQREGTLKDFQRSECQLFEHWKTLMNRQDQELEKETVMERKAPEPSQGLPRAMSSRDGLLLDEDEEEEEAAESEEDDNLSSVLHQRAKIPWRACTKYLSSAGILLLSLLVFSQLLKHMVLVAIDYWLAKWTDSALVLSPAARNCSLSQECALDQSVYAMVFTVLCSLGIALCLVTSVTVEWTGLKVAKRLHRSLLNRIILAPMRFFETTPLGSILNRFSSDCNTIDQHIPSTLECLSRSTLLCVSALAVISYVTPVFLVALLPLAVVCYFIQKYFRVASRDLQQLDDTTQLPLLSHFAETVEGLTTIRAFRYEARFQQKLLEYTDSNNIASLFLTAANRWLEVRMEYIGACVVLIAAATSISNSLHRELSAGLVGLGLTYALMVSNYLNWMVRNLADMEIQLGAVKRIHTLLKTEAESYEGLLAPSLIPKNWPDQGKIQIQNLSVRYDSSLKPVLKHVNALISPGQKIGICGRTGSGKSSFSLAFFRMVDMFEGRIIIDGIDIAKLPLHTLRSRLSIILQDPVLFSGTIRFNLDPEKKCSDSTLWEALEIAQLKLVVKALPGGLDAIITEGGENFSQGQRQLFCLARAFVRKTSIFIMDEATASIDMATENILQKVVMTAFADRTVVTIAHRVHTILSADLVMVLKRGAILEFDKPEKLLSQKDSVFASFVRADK

How did the “lower affinity to SUR1 compared to glimepiride” value (SUR1; [3H]-glibenclamide displacement, unaffected by illumination) turn out when `CCN(CC)c1ccc(/N=N/c2ccc(S(=O)(=O)NC(=O)NC3CCCCC3)cc2)cc1` [JB253, (E)-N-(cyclohexylcarbamoyl)-4-((4-(diethylamino)phenyl)diazenyl)benzenesulfonamide] was run?
Its value is 1000 fold.

And the pIC50 (SUR1; displacement of [3H]-glibenclamide, SUR1-expressing HEK293t cells, n = 3, cis-state may relax thermally during washing)?
The pIC50 was 4.75.

What about the “fluo-2-loaded population responding to illumination with synchronous Ca^2+ rises” value (mouse islets; 50 µM JB253, 405 nm laser, n = 10 recordings) of the same compound?
The value was 54%.

And the “responsive X-Rhod-1-loaded cells” value (mouse islets; 50 µM JB253, 405 nm, n = 3 recordings)?
The value was 63%.

And the “stimulation of [Ca^2+]i” value (mouse islets; concentration-response, dark)?
The value was “largely ineffective”.

What about the “concentration-response curve for glimepiride in the presence of trans-JB253” value (mouse islets; saturating concentration (100 µM) of trans-JB253, dark) of the same compound?
The value was “right-shifted”.
